Assay results published in PubChem BioAssay AID192 (DTP/NCI, 2004).
Several values for one entry are separate records, joined by “and”; a condition that tells them apart may be missing. Identical values can stand only once. Inconclusive results and toxic doses are left out.

Tested on: BDF1 mice, B16 melanoma ip, median survival T/C
Assay: NCI In Vivo Anticancer Drug Screen. Data for tumor model B16 Melanoma (intraperitoneal) in B6D2F1 (BDF1) mice
Details: endpoint: median survival time, higher = longer survival
How it was run: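 Mice with transplantable tumors; drug vs vehicle groups; endpoint survival or tumor size; value = T/C.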

[1] = dose: 100.0 mg/kg/injection, schedule: Q01DX009 (ip), vehicle: Klucel (hydroxypropylcellulose) (HPC)
[2] = dose: 200.0 mg/kg/injection, schedule: Q01DX009 (ip), vehicle: Klucel (hydroxypropylcellulose) (HPC)
[3] = dose: 400.0 mg/kg/injection, schedule: Q01DX009 (ip), vehicle: Klucel (hydroxypropylcellulose) (HPC)
[4] = dose: 50.0 mg/kg/injection, schedule: Q01DX009 (ip), vehicle: Klucel (hydroxypropylcellulose) (HPC)
[5] = dose: 100.0 mg/kg/injection, schedule: Q04DX003 (ip), vehicle: saline with Tween-80
[6] = dose: 200.0 mg/kg/injection, schedule: Q04DX003 (ip), vehicle: saline with Tween-80
[7] = dose: 400.0 mg/kg/injection, schedule: Q04DX003 (ip), vehicle: saline with Tween-80
[8] = dose: 50.0 mg/kg/injection, schedule: Q01DX009 (ip), vehicle: saline with Tween-80
[9] = dose: 100.0 mg/kg/injection, schedule: Q01DX009 (ip), vehicle: saline with Tween-80
[10] = dose: 200.0 mg/kg/injection, schedule: Q01DX009 (ip), vehicle: saline with Tween-80
[11] = dose: 25.0 mg/kg/injection, schedule: Q01DX009 (ip), vehicle: saline
[12] = dose: 50.0 mg/kg/injection, schedule: Q01DX009 (ip), vehicle: saline
[13] = dose: 25.0 mg/kg/injection, schedule: Q01DX009 (ip), vehicle: saline with Tween-80
[14] = dose: 6.25 mg/kg/injection, schedule: Q01DX009 (ip), vehicle: saline with Tween-80
[15] = dose: 12.5 mg/kg/injection, schedule: Q01DX009 (ip), vehicle: saline with Tween-80

`C(=Nc1ccc2c(c1)Cc1ccccc1-2)c1ccnc2ccccc12` was tested, and the T/C [1] was 103 % of control, the T/C [2] was 100 % of control and the T/C [3] was 93 % of control.

With `COc1cc(C(O)C(Cl)(Cl)Cl)ccc1O` (stereo not given) the T/C (dose: 100.0 mg/kg/injection, schedule: Q01DX009 (ip), vehicle: other) was 94 % of control and the T/C (dose: 200.0 mg/kg/injection, schedule: Q01DX009 (ip), vehicle: other) was 91 % of control.

With `Oc1ccccc1C=NCC[N-]CCN=Cc1ccccc1O.[Cu+]` the T/C (dose: 0.39 mg/kg/injection, schedule: Q01DX009 (ip), vehicle: Klucel (hydroxypropylcellulose) (HPC)) was 97 % of control, the T/C (dose: 0.78 mg/kg/injection, schedule: Q01DX009 (ip), vehicle: Klucel (hydroxypropylcellulose) (HPC)) was 96 % of control and the T/C (dose: 1.56 mg/kg/injection, schedule: Q01DX009 (ip), vehicle: Klucel (hydroxypropylcellulose) (HPC)) was 90 % of control.

For `CNC(=S)N/N=C(\C=N\NC(=S)NC)c1ccc(C)cc1`, the T/C [4] was 101 % of control, the T/C [1] was 90 % of control and the T/C [2] was 89 % of control.

For `Cc1cc(C)c(C(=O)O)c(C)c1Br`, the T/C [5] was 102 % of control, the T/C [6] was 97 % of control and the T/C [7] was 100 % of control.

For `O=c1cnn(C2OC(CO)C(O)C2O)c(=S)[nH]1` (stereo not given), the T/C [5] was 93 % of control, the T/C [6] was 95 % of control and the T/C [7] was 88 % of control.

`CC[C@]12CN3CCc4c([nH]c5ccccc45)[C@@](C(=O)OC)(c4cc5c(cc4OC)N(C=O)[C@H]4[C@@](O)(C(=O)OC)[C@H](OC(C)=O)[C@]6(CC)C=CCN7CC[C@]54[C@@H]76)C[C@H](C3)[C@H]1O2` was tested, and the T/C (dose: 4.0 mg/kg/injection, schedule: Q01DX011 (ip), vehicle: saline) was 159 % of control.

With `CCCCCCCCCCCCCCCC[N+](C)(C)c1nc(Cl)nc(Cl)n1` the T/C (dose: 2.0 mg/kg/injection, schedule: Q01DX009 (ip), vehicle: saline with Tween-80) was 97 % of control, the T/C (dose: 4.0 mg/kg/injection, schedule: Q01DX009 (ip), vehicle: saline with Tween-80) was 100 % of control and the T/C (dose: 8.0 mg/kg/injection, schedule: Q01DX009 (ip), vehicle: saline with Tween-80) was 95 % of control.

`Nc1cc2nc3ccccc3sc-2cc1=O` was tested, and the T/C [8] was 93 % of control, the T/C [9] was 98 % of control and the T/C [10] was 94 % of control.

`CCCCNc1cc(Nc2ccc(Br)cc2)nc(N)n1` was tested, and the T/C [8] was 95 % of control and the T/C [9] was 91 % of control.

`O=C1NC(c2cccc(OCc3ccccc3)c2)Nc2ccccc21` (stereo not given) was tested, and the T/C (dose: 25.0 mg/kg/injection, schedule: Q01DX009 (ip), vehicle: Klucel (hydroxypropylcellulose) (HPC)) was 92 % of control, the T/C [4] was 100 % of control and the T/C [1] was 103 % of control. For the same compound, the T/C [2] was 108 % of control.

With `O=S(=O)(O)c1cc(O)c2ccccc2c1` the T/C (dose: 100.0 mg/kg/injection, schedule: Q01DX009 (ip), vehicle: saline) was 107 % of control, the T/C (dose: 200.0 mg/kg/injection, schedule: Q01DX009 (ip), vehicle: saline) was 100 % of control and the T/C (dose: 400.0 mg/kg/injection, schedule: Q01DX009 (ip), vehicle: saline) was 102 % of control.

With `O=C(O)C(=O)O` the T/C (dose: 6.25 mg/kg/injection, schedule: Q01DX009 (ip), vehicle: saline) was 101 % of control, the T/C (dose: 12.5 mg/kg/injection, schedule: Q01DX009 (ip), vehicle: saline) was 105 % of control and the T/C [11] was 96 % of control and 108 % of control. For the same compound, the T/C [12] was 95 % of control.

With `CCOc1ccccc1NC(=O)c1cccc(C(=O)Nc2ccccc2OCC)c1` the T/C [1] was 105 % of control, the T/C [2] was 94 % of control and the T/C [3] was 94 % of control.

`Clc1ccc2c(c1)/C(=C/c1cccnc1)c1cc(Cl)cc(Cl)c1-2` was tested, and the T/C [8] was 86 % of control.

In the case of `C#CC1(OCC(CCl)OC(N)=O)CCCCC1` (stereo not given), the T/C [13] is reported as 87 % of control and the T/C [9] is reported as 104 % of control.

With `COc1ccccc1NC(=O)Nc1ccc(Nc2ccccc2)cc1` the T/C (dose: 100.0 mg/kg/injection, schedule: Q01DX009 (ip), vehicle: gum acacia) was 109 % of control and the T/C (dose: 200.0 mg/kg/injection, schedule: Q01DX009 (ip), vehicle: gum acacia) was 97 % of control.

With `CO[C@@H](C=O)O[C@@H](C=O)CO` the T/C [14] was 100 % of control, the T/C [15] was 108 % of control and the T/C (dose: 12.5 mg/kg/injection, schedule: Q04DX003 (ip), vehicle: saline with Tween-80) was 96 % of control. The T/C [13] was 103 % of control, the T/C [11] was 107 % of control and the T/C (dose: 25.0 mg/kg/injection, schedule: Q04DX003 (ip), vehicle: saline with Tween-80) was 108 % of control. For the same compound, the T/C [8] was 124 % of control, the T/C [12] was 100 % of control and the T/C (dose: 50.0 mg/kg/injection, schedule: Q04DX003 (ip), vehicle: saline with Tween-80) was 102 % of control. The T/C (dose: 50.0 mg/kg/injection, schedule: Q04DX003 (ip), vehicle: saline) was 104 % of control and the T/C [5] was 100 % of control.

In the case of `COc1ccc2c(c1)CCC(c1ccccc1)=C2c1ccc(OCCN2CCCC2)cc1`, the T/C (dose: 6.0 mg/kg/injection, schedule: Q01DX009 (ip), vehicle: saline sonified) is reported as 102 % of control, the T/C (dose: 12.0 mg/kg/injection, schedule: Q01DX009 (ip), vehicle: saline sonified) is reported as 111 % of control and the T/C (dose: 24.0 mg/kg/injection, schedule: Q01DX009 (ip), vehicle: saline sonified) is reported as 111 % of control.

In the case of `C=C1C(=O)C23[C@H](O)C1CC[C@H]2[C@]12COC3(O)[C@@H](O)[C@@H]1C(C)(C)CC[C@@H]2O`, the T/C (dose: 1.56 mg/kg/injection, schedule: Q01DX009 (ip), vehicle: saline with Tween-80) is reported as 105 % of control, the T/C (dose: 3.12 mg/kg/injection, schedule: Q01DX009 (ip), vehicle: saline with Tween-80) is reported as 93 % of control and the T/C [14] is reported as 96 % of control.

For `NC(=O)NC1CCCC1`, the T/C [9] was 106 % of control, the T/C [10] was 112 % of control and the T/C (dose: 400.0 mg/kg/injection, schedule: Q01DX009 (ip), vehicle: saline with Tween-80) was 102 % of control.

With `Cn1cnc([N+](=O)[O-])c1[Se]c1nc(N)nc2nc[nH]c12` the T/C (dose: 3.12 mg/kg/injection, schedule: Q01DX009 (ip), vehicle: water) was 109 % of control, the T/C (dose: 6.25 mg/kg/injection, schedule: Q01DX009 (ip), vehicle: water) was 117 % of control and the T/C (dose: 11.0 mg/kg/injection, schedule: Q01DX009 (ip), vehicle: other) was 116 % of control. The T/C (dose: 12.5 mg/kg/injection, schedule: Q01DX009 (ip), vehicle: water) was 150 % of control, the T/C (dose: 16.5 mg/kg/injection, schedule: Q01DX009 (ip), vehicle: other) was 117 % of control and the T/C (dose: 25.0 mg/kg/injection, schedule: Q01DX009 (ip), vehicle: water) was 153 % of control and 158 % of control.

With `N#CCc1ccc(Cl)c(Cl)c1` the T/C [14] was 90 % of control, the T/C [15] was 88 % of control and the T/C [13] was 95 % of control.

With `C=C(OC1C(C)=C2C(C1OC(=O)CCCCCCC)C(C)(OC(C)=O)CC(OC(=O)CCC)C1(O)C2OC(=O)C1(C)O)/C(C)=C/C` (stereo not given) the T/C (dose: 0.37 mg/kg/injection, schedule: Q01DX009 (ip), vehicle: Klucel (hydroxypropylcellulose) (HPC)) was 97 % of control, the T/C (dose: 1.5 mg/kg/injection, schedule: Q01DX009 (ip), vehicle: Klucel (hydroxypropylcellulose) (HPC)) was 99 % of control and the T/C (dose: 3.0 mg/kg/injection, schedule: Q01DX009 (ip), vehicle: Klucel (hydroxypropylcellulose) (HPC)) was 115 % of control.

For `CCC(=O)/C=C/C1=C(C)CCCC1(C)C`, the T/C [8] was 104 % of control, the T/C [9] was 103 % of control and the T/C [10] was 92 % of control.

In the case of `O=C(O)/C=C\C(=O)Nc1ccccn1`, the T/C (dose: 5.0 mg/kg/injection, schedule: Q01DX009 (ip), vehicle: saline) is reported as 100 % of control, the T/C (dose: 10.0 mg/kg/injection, schedule: Q01DX009 (ip), vehicle: saline) is reported as 100 % of control and the T/C (dose: 30.0 mg/kg/injection, schedule: Q01DX009 (ip), vehicle: saline) is reported as 112 % of control. For the same compound, the T/C (dose: 60.0 mg/kg/injection, schedule: Q01DX009 (ip), vehicle: saline) was 109 % of control.

With `COC1C(O)C(C)OC(OC2CC(O)C3(C)C(CCC4C3CCC3(C)C(C5=CC(=O)OC5)CCC43O)C2)C1O` (stereo not given) (tested in a mixture with another compound) the T/C (dose: 2.0 mg/kg/injection, schedule: Q01DX009 (ip), vehicle: saline) was 99 % of control, the T/C (dose: 4.0 mg/kg/injection, schedule: Q01DX009 (ip), vehicle: saline) was 97 % of control and the T/C (dose: 8.0 mg/kg/injection, schedule: Q01DX009 (ip), vehicle: saline) was 97 % of control. The T/C (dose: 16.0 mg/kg/injection, schedule: Q01DX009 (ip), vehicle: saline) was 94 % of control, the T/C (dose: 32.0 mg/kg/injection, schedule: Q01DX009 (ip), vehicle: saline) was 94 % of control and the T/C (dose: 64.0 mg/kg/injection, schedule: Q01DX009 (ip), vehicle: saline) was 88 % of control.
